Measured values as given in ChEMBL document CHEMBL1201862, “PubChem BioAssay data set” (2004).
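Growth conditions: 96-well plates. Treatment: test compound, 48 hours, 5 concentrations. Analysis: linear interpolation between bracketing concentrations; unreached endpoints set to highest concentration. At the GI50, growth is halved.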 Calls of active or inactive are those of the source. Rule as the data show it: active = GI50 up to about 1.1 µM and inactive = higher.

Assays:
Assay in all cases: inhibition of tumour cell growth, NCI panel, 48 h
CAKI-1 = test system: CAKI-1
EKVX = test system: EKVX
HOP-62 = test system: HOP-62
IGROV-1 = test system: IGROV-1
M14 = test system: M14
MCF7 = test system: MCF7
MDA-N = test system: MDA-N
MOLT-4 = test system: MOLT-4
NCI-H226 = test system: NCI-H226
NCI-H460 = test system: NCI-H460
NCI/ADR-RES = test system: NCI/ADR-RES
OVCAR-8 = test system: OVCAR-8
RXF 393 = test system: RXF 393
SF-268 = test system: SF-268
SF-295 = test system: SF-295
SK-MEL-2 = test system: SK-MEL-2
SK-MEL-5 = test system: SK-MEL-5
SNB-75 = test system: SNB-75
SR = test system: SR
UACC-62 = test system: UACC-62

Measured: GI50

C/C(=N\Oc1cc(Cl)ncn1)c1ccccn1
inactive: CAKI-1 18.7 µM | EKVX 38.5 µM | HOP-62 38.1 µM | IGROV-1 21.9 µM | M14 18.4 µM | MCF7 55.3 µM | MDA-N > 100 µM | MOLT-4 39.2 µM | NCI-H226 > 100 µM | NCI-H460 25.3 µM | NCI/ADR-RES > 100 µM | OVCAR-8 > 100 µM | RXF 393 4 µM | SF-268 58.2 µM | SF-295 63 µM | SK-MEL-2 14.1 µM | SK-MEL-5 28.1 µM | SNB-75 > 100 µM | SR 31.7 µM | UACC-62 47.5 µM
